Test results: patent US4062958A, “Method of treating anxiety and compositions therefor” (American Cyanamid Company, priority 1976, dated 1977)

What was measured:
[1] = test system: conflict situation induced in rats (number of shocks received); test: Non-conditioned passive avoidance (conflict) procedure in rats; type: in vivo; conditions: Sprague-Dawley rats, positive = 9 or more shocks in 4 to 5 minutes; for ED50: Rattus norvegicus, oral, comparison drugs tested in exactly the same manner, read-out: median effective dose (ED50)
Procedure: Another test which has been used to assess anti-anxiety effects is a non-conditioned passive avoidance procedure described by J. R. Vogel, B. Beer and D. E. Clody, "A Simple and Reliable Conflict Procedure for Testing Anti-Anxiety Agents", Psychopharmacologia, Vol. 21, pp. 1-7 (1971). A conflict situation is induced in rats by a modification of this method. To groups of six naive Sprague-Dawley rats (200-220 grams), previously deprived of water for forty-eight hours and food for 24 hours, are administered graded oral doses of test compound suspended in 2% starch vehicle also containing 2 drops of polyethylene glycol and polysorbate 80, or vehicle alone (controls). At the time of peak effect each rat is placed in a plexiglass box fitted with a drinkometer circuit connected between the stainless steel grid floor and a stainless steel drinking tube inserted in a hole in one of the walls of the box. A stimulator supplying monophasic 60 cycle square wave pulses of 0.2 milliamperes peak intensity, a timer which allows alternate 5 second " shock free" and 5 second "shock available" periods during a 5 minute test period, an electromagnetic counter to count the number of shocks received by the rat during the shock available period and a delay of one half second between the successive shocks are incorporated into the drinkometer circuit. After the rat is placed in the box, it is allowed to explore and drink 10% dextrose solution supplied through the tap. After twenty seconds of continuous unpunished drinking, the timer and drinkometer circuits are activated and 5 second shock free and 5 second shock available periods alternate. The number of shocks received by the rat during a 5 minute test period is recorded. The percentage of rats that receive 9 or more shocks in 4 to 5 minutes at each dose level is used as positive response in calculation of the median effective dose (ED50). The estimated (ED50) for the compound 3-methyl-6-phenyl-1,2,4-triazolo[4,3-b]pyridazine after one hour from oral administration is 100 mg./kg.

[2] = test system: clonic seizures caused by pentylenetetrazole; test: Protection against clonic seizures caused by pentylenetetrazole in rats; type: in vivo; conditions: Rattus norvegicus, oral, 2% starch vehicle, groups of at least 5, pentylenetetrazole 21 to 23 mg./kg. i.v. at estimated time of peak effect, read-out: Medium Effective Oral Dose ED50, protection against clonic seizures caused by pentylenetetrazole
Procedure: The anti-anxiety properties of the active compound of the present invention has been established in a test which indicates anxiolytic activity by the measure of protection from convulsions resulting from the administration of pentylenetetrazole. Graded dose levels of the compound of this invention were administered orally, in a 2% starch vehicle, to groups of at least 5 rats. At the estimated time of peak effect, the rats were treated intravenously with pentylenetetrazole at a dose of 21 to 23 mg./kg. of body weight. This dose is estimated to cause clonic seizures in 99% of unprotected rats. The effective dose (ED50) of the test compound for protection of 50% of the animals is calculated by the method of D. H. Finney in "Statistical Methods in Biological Assay", Second Edition, Hafner Publishing Co., New York, 1964, pp. 456-457. Representative results are given in the table which follows in comparison with chlordiazepoxide and meprobamate, which were tested in exactly the same manner. It has been reported [R. T. Hill and D. H. Tedeschi, "Animal Testing and Screening Procedures in Evaluating Psychotropic Drugs" in An Introduction of Psychopharmacology, Eds. R. R. Rech and K. E. Moore, Raven Press, New York, pp. 237-288 (1971)] that there is a high degree of correlation between antagonism of pentylenetetrazole seizures in rats and anti-anxiety effects in higher warm-blooded animals.

Row | SMILES | ED50 [1] [mg/kg] | ED50 [2] [mg/kg] | estimated median effective dose (ED50) ([1]; one hour after oral administration) [mg/kg]
1 | CCCC(C)(COC(N)=O)COC(N)=O [Meprobamate] | 51.9 | 22 | 
2 | Cc1nnc2ccc(-c3ccccc3)nn12 [3-methyl-6-phenyl-1,2,4-triazolo[4,3-b]pyridazine] |  | 3 | 100
3 | CNC1=Nc2ccc(Cl)cc2C(c2ccccc2)=[N+]([O-])C1 [Chlordiazepoxide] | 9.6 | 2.5 | 
